14 compounds from PubChem BioAssay (NCI) can be followed below.

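Assay format: 96-well plates, 48-hour exposure. GI50 is the concentration that inhibits growth by half. TGI is the concentration that stops growth completely.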 Where only a bound is given, the exact number is not on record here.

Among the test systems are PC-3 prostate; HOP-92 NSCLC; SF-268 CNS; OVCAR-3 ovarian; NCI-H522 lung; K-562 leukemia; KM12 colon; SK-OV-3 ovarian; SK-MEL-28 melanoma; HCC-2998 colon.
Common to all, as to experiment: DTP human tumour cell line panel, 48 h

A word on the TGI: it is the concentration giving total growth inhibition. With `NCCOc1ccccn1`, the total growth inhibition concentration (TGI) in the assay on PC-3 prostate, in the assay with HOP-92 NSCLC, in the assay with SF-268 CNS, in the assay on OVCAR-3 ovarian, in the assay on NCI-H522 lung and in the assay on K-562 leukemia was more than 100 µM each time. Also, the total growth inhibition concentration (TGI) with KM12 colon, in the assay with SK-OV-3 ovarian and in the assay on SK-MEL-28 melanoma was more than 100 µM in each case.
As to `CC(=O)Nc1ccc(C(=O)N[C@@H]2C(=O)N3[C@@H]2SC(C)(C)[C@@H]3C(=O)O)cn1`, the TGI in the assay on PC-3 prostate, in the assay on HOP-92 NSCLC, in the assay with SF-268 CNS, in the assay with HCC-2998 colon, in the assay with OVCAR-3 ovarian and with K-562 leukemia was more than 100 µM in each case. For the same compound, the TGI with KM12 colon, in the assay with SK-OV-3 ovarian and with SK-MEL-28 melanoma was more than 100 µM in each case.
A word on the GI50: it is the concentration that inhibits growth by half. Turning to `CCN1C(=O)N(c2c(F)c(OC)cc(OC)c2F)Cc2cnc3[nH]c(CN4CCOCC4)cc3c21`, the GI50 in the assay on PC-3 prostate was 4.34 µM; with HOP-92 NSCLC, 2.06 µM; in the assay with SF-268 CNS, 2.19 µM; with OVCAR-3 ovarian it was 5.73 µM; in the assay on NCI-H522 lung it was 3.12 µM; in the assay with K-562 leukemia it was 8.66 µM. For the same compound, the GI50 is 5.08 µM with KM12 colon and 8.06 µM in the assay on SK-MEL-28 melanoma. The TGI with PC-3 prostate, in the assay with HOP-92 NSCLC, with SF-268 CNS, in the assay on OVCAR-3 ovarian, with NCI-H522 lung and with K-562 leukemia was more than 100 µM throughout. Besides, the TGI in the assay on KM12 colon and in the assay on SK-MEL-28 melanoma was more than 100 µM in each case.
`O=c1c2ccccc2nc(-c2ccc(Cl)cc2)n1O`: the TGI in the assay with PC-3 prostate was more than 100 µM; in the assay on HOP-92 NSCLC it was 88.8 µM; in the assay on SF-268 CNS, more than 100 µM; in the assay with OVCAR-3 ovarian, more than 100 µM; in the assay with NCI-H522 lung it was 57 µM; in the assay with K-562 leukemia, more than 100 µM. In addition, the concentration for total growth inhibition (TGI) with KM12 colon and in the assay on SK-OV-3 ovarian was more than 100 µM throughout.
In the case of `N#C/C(=C/N1CCN(C(=O)c2ccco2)C1=S)C(N)=O`, the GI50 in the assay with PC-3 prostate was 35.6 µM; with HOP-92 NSCLC it was 25.5 µM; in the assay with SF-268 CNS, 11.7 µM; in the assay with OVCAR-3 ovarian it was 19 µM; in the assay on NCI-H522 lung it was 18.7 µM; with K-562 leukemia, 9.13 µM. Also, the values for the GI50 in the assay with KM12 colon, in the assay on SK-OV-3 ovarian and in the assay on SK-MEL-28 melanoma were 7.51 µM, 42.6 µM and 15.8 µM, respectively. Also, the TGI with PC-3 prostate was more than 100 µM; with HOP-92 NSCLC, more than 100 µM; in the assay on SF-268 CNS, 36.4 µM; with OVCAR-3 ovarian it was 59.8 µM; in the assay with NCI-H522 lung it was 44.2 µM; in the assay on K-562 leukemia, more than 100 µM. Moreover, the total growth inhibition concentration (TGI) is 98.2 µM in the assay on KM12 colon, more than 100 µM in the assay with SK-OV-3 ovarian and more than 100 µM in the assay with SK-MEL-28 melanoma.
Take `O=C(Nc1ccccc1Cl)c1ccc(NC2=C(Cl)C(=O)N(Cc3ccccc3)C2=O)cc1`: the GI50 with PC-3 prostate is 40 µM; in the assay on SF-268 CNS, 23.3 µM; in the assay with HCC-2998 colon, 13.7 µM; in the assay with OVCAR-3 ovarian it was 18.7 µM; with NCI-H522 lung it was 17.9 µM; in the assay with K-562 leukemia, 21.8 µM. Further, the results for the GI50 in the assay on KM12 colon, in the assay on SK-OV-3 ovarian and with SK-MEL-28 melanoma were 32.7 µM, more than 100 µM and 43 µM, respectively. Moreover, the total growth inhibition concentration (TGI) is more than 100 µM with PC-3 prostate; 55.1 µM with SF-268 CNS; 26.6 µM in the assay on HCC-2998 colon; 36.6 µM in the assay on OVCAR-3 ovarian; 38.8 µM in the assay with NCI-H522 lung; 49.3 µM in the assay on K-562 leukemia. In addition, the TGI in the assay on KM12 colon, in the assay with SK-OV-3 ovarian and in the assay on SK-MEL-28 melanoma was more than 100 µM throughout.
`CCCCCCCCSC1=CC(=O)C(OC)=C(OC)C1=O`: the GI50 in the assay on PC-3 prostate is 6.24 µM; in the assay with SF-268 CNS it was 3.75 µM; in the assay on HCC-2998 colon it was 11.3 µM; with OVCAR-3 ovarian, 1.45 µM; in the assay on NCI-H522 lung, 0.326 µM; in the assay with K-562 leukemia, 2.73 µM. Also, the values for the GI50 in the assay with KM12 colon, in the assay on SK-OV-3 ovarian and in the assay on SK-MEL-28 melanoma were 3.43 µM, 17.6 µM and 6.7 µM, respectively. For the same compound, the TGI in the assay on PC-3 prostate is 23.3 µM; with SF-268 CNS, 14.7 µM; in the assay with HCC-2998 colon, 24.4 µM; in the assay on OVCAR-3 ovarian it was 2.85 µM; in the assay with NCI-H522 lung it was 1.49 µM; in the assay with K-562 leukemia it was more than 100 µM. Further, the TGI in the assay on KM12 colon amounted to 13.7 µM; in the assay on SK-OV-3 ovarian it was 36.4 µM; in the assay on SK-MEL-28 melanoma it was 20.3 µM.
`CC(O)CN(CCN(CC(C)O)CC(C)O)CC(C)O.O=[N+]([O-])O.[Cu+2]` (configuration not stated): the GI50 in the assay with PC-3 prostate, with HOP-92 NSCLC, with SF-268 CNS, with OVCAR-3 ovarian, with NCI-H522 lung and with K-562 leukemia was more than 100 µM each time. In addition, the GI50 with KM12 colon, with SK-OV-3 ovarian and with SK-MEL-28 melanoma was more than 100 µM throughout. The TGI in the assay on PC-3 prostate, in the assay on HOP-92 NSCLC, with SF-268 CNS, in the assay on OVCAR-3 ovarian, in the assay on NCI-H522 lung and with K-562 leukemia was more than 100 µM in each case. Besides, the total growth inhibition concentration (TGI) in the assay on KM12 colon, in the assay on SK-OV-3 ovarian and in the assay on SK-MEL-28 melanoma was more than 100 µM each time.
Turning to `COC(=O)c1oc2c(C(=O)/C=C/c3ccc(OC)cc3)c(OCCCN3CCCCC3)ccc2c1C`, the GI50 in the assay with PC-3 prostate was 2.39 µM; with HOP-92 NSCLC, 0.808 µM; in the assay with SF-268 CNS, 2.24 µM; in the assay with OVCAR-3 ovarian it was 1.63 µM; in the assay on NCI-H522 lung it was 1.6 µM; in the assay with K-562 leukemia, 2.6 µM. In addition, the GI50 in the assay on KM12 colon is 1.7 µM; with SK-OV-3 ovarian, 1.25 µM; in the assay with SK-MEL-28 melanoma it was 0.85 µM. For the same compound, the TGI came out at 7.02 µM with PC-3 prostate; 2.59 µM in the assay with HOP-92 NSCLC; 4.69 µM in the assay with SF-268 CNS; 3.72 µM with OVCAR-3 ovarian; 3.6 µM in the assay on NCI-H522 lung; 3.66 µM in the assay on KM12 colon. For the same compound, the TGI with SK-OV-3 ovarian worked out at 4.35 µM; in the assay on SK-MEL-28 melanoma, 2.33 µM.
On to `C[n+]1c2ccccc2c(NC2CCNCC2)c2[nH]c3ccccc3c21`, for which the GI50 in the assay with PC-3 prostate was 1.53 µM; in the assay with HOP-92 NSCLC, 1.15 µM; in the assay on SF-268 CNS, 0.0378 µM; in the assay with HCC-2998 colon, 0.331 µM; in the assay on OVCAR-3 ovarian, 0.969 µM; in the assay with NCI-H522 lung, 0.124 µM. Moreover, the GI50 was 0.718 µM with KM12 colon, 0.302 µM in the assay on SK-OV-3 ovarian and 1.03 µM in the assay with SK-MEL-28 melanoma. For the same compound, the concentration for total growth inhibition (TGI) with PC-3 prostate worked out at 5.75 µM; in the assay with HOP-92 NSCLC, 6.86 µM; with SF-268 CNS, 0.773 µM; in the assay with HCC-2998 colon, 1.63 µM; with OVCAR-3 ovarian it was 5.87 µM; with NCI-H522 lung it was 0.699 µM. Also, the TGI with KM12 colon was 5.77 µM; in the assay on SK-OV-3 ovarian, 3 µM; in the assay with SK-MEL-28 melanoma, 2.95 µM.
In the case of `COc1ccc(Cc2ccccc2C(=O)O)c2ccccc12`, the TGI with PC-3 prostate is more than 100 µM; in the assay with HOP-92 NSCLC, 61.9 µM; in the assay with SF-268 CNS, 87.5 µM; in the assay on OVCAR-3 ovarian, 47.1 µM; in the assay with NCI-H522 lung, 55.4 µM; with K-562 leukemia it was more than 100 µM. Besides, the TGI in the assay with KM12 colon was 42.9 µM; in the assay on SK-OV-3 ovarian, more than 100 µM; in the assay with SK-MEL-28 melanoma, 64.2 µM.
Turning to `CC1=C(C(=O)Nc2ccc(F)c(Cl)c2)C(c2cccc(Cl)c2)NC(=O)N1` (configuration not stated), the GI50 in the assay with PC-3 prostate is 17.2 µM; in the assay with HOP-92 NSCLC it was 15.5 µM; with SF-268 CNS, 17.2 µM; in the assay on HCC-2998 colon, 18.3 µM; with OVCAR-3 ovarian, 19.5 µM; with NCI-H522 lung, 15.9 µM. In addition, the GI50 in the assay on KM12 colon is 20.6 µM; with SK-OV-3 ovarian it was 19.1 µM; in the assay with SK-MEL-28 melanoma it was 13.8 µM. Moreover, the TGI in the assay on PC-3 prostate came out at 46.9 µM; in the assay with HOP-92 NSCLC, 33 µM; in the assay on SF-268 CNS it was 39.4 µM; with HCC-2998 colon it was 32.5 µM; in the assay on OVCAR-3 ovarian, 56.2 µM; with NCI-H522 lung it was 33 µM. Further, the TGI in the assay with KM12 colon was 38.7 µM; with SK-OV-3 ovarian it was 44.6 µM; in the assay with SK-MEL-28 melanoma it was 28 µM.
Consider `COC(=O)c1c(-c2ccccc2)csc1NC(=O)c1c(-c2ccccc2)noc1C`, for which the GI50 in the assay on PC-3 prostate was 1.28 µM; with SF-268 CNS, 0.89 µM; in the assay on HCC-2998 colon, more than 21 µM; in the assay with OVCAR-3 ovarian it was 3.79 µM; with NCI-H522 lung, 1.56 µM; in the assay with K-562 leukemia, 0.409 µM. Besides, the GI50 was 0.802 µM with KM12 colon, 3.08 µM with SK-OV-3 ovarian and 1.56 µM in the assay with SK-MEL-28 melanoma. The TGI in the assay on PC-3 prostate was more than 100 µM; in the assay on SF-268 CNS, more than 100 µM; in the assay on HCC-2998 colon, more than 100 µM; in the assay on OVCAR-3 ovarian it was more than 100 µM; in the assay on NCI-H522 lung it was more than 26.3 µM; in the assay on K-562 leukemia it was more than 100 µM. The TGI with KM12 colon, in the assay with SK-OV-3 ovarian and in the assay with SK-MEL-28 melanoma was more than 100 µM in each case.
As to `Cc1c2c(nn1-c1ccc(S/N=C3\SCC(=O)CN3c3ccccc3)cc1)-c1ccccc1CC2`, the GI50 in the assay on PC-3 prostate is 20.4 µM; with HOP-92 NSCLC, more than 50 µM; in the assay with SF-268 CNS, 20.2 µM; in the assay with OVCAR-3 ovarian, more than 50 µM; in the assay with NCI-H522 lung it was 15.4 µM; with K-562 leukemia, 17.6 µM. Also, the GI50 with KM12 colon was 46.5 µM; in the assay with SK-OV-3 ovarian, 43.3 µM; in the assay on SK-MEL-28 melanoma, 28.5 µM. The TGI with PC-3 prostate, in the assay with HOP-92 NSCLC, in the assay on SF-268 CNS, in the assay with OVCAR-3 ovarian, in the assay with NCI-H522 lung and with K-562 leukemia was more than 50 µM in each case. Also, the TGI in the assay with KM12 colon, in the assay with SK-OV-3 ovarian and in the assay on SK-MEL-28 melanoma was more than 50 µM in each case.
